Values belong to the compound of their own block, whether it stands above or below them.
How the values were obtained:
[1] = target: Photosystem II D1 protein (psbA) (Spinacia oleracea); experiment: Inhibition of photosynthetic electron transport activity in Spinacia oleracea thylakoids assessed as inhibition of oxygen release
Echinochloa oryzicola [2] = experiment: Pre-emergence herbicidal activity against Echinochloa oryzicola at 400 g a.i./10a measured after 3 weeks by paddy application test; type: functional
Pontederia vaginalis [3] = experiment: Pre-emergence herbicidal activity against Monochoria vaginalis at 400 g a.i./10a measured after 3 weeks by paddy application test; type: functional
Chenopodium album [4] = experiment: Pre-emergence herbicidal activity against Chenopodium album at 400 g a.i./10a measured after 3 weeks by soil application test; type: functional
Chenopodium album [5] = experiment: Post-emergence herbicidal activity against Chenopodium album at 400 g a.i./10a measured after 3 weeks by foliar application test; type: functional
Digitaria ciliaris [6] = experiment: Pre-emergence herbicidal activity against Digitaria ciliaris at 400 g a.i./10a measured after 3 weeks by soil application test; type: functional
Echinochloa crus-galli [7] = experiment: Post-emergence herbicidal activity against Echinochloa crus-galli var. crus-galli at 400 g a.i./10a measured after 3 weeks by foliar application test; type: functional
[8] = tested on: Amaranthus blitum subsp. oleraceus; experiment: Pre-emergence herbicidal activity against Amaranthus blitum subsp. Oleraceus at 400 g a.i./10a measured after 3 weeks by soil application test; type: functional
Rotala indica [9] = experiment: Pre-emergence herbicidal activity against Rotala indica at 400 g a.i./10a measured after 3 weeks by paddy application test; type: functional
[10] = tested on: Schoenoplectiella juncoides; experiment: Pre-emergence herbicidal activity against Schoenoplectiella juncoides var. Hotarui Ohwi at 400 g a.i./10a measured after 3 weeks by paddy application test; type: functional
Echinochloa crus-galli [11] = experiment: Pre-emergence herbicidal activity against Echinochloa crus-galli var. crus-galli at 400 g a.i./10a measured after 3 weeks by soil application test; type: functional
Digitaria ciliaris [12] = experiment: Post-emergence herbicidal activity against Digitaria ciliaris at 400 g a.i./10a measured after 3 weeks by foliar application test; type: functional
Persicaria longiseta [13] = experiment: Post-emergence herbicidal activity against Persicaria longiseta at 400 g a.i./10a measured after 3 weeks by foliar application test; type: functional
Persicaria longiseta [14] = experiment: Pre-emergence herbicidal activity against Persicaria longiseta at 400 g a.i./10a measured after 3 weeks by soil application test; type: functional
Echinochloa crus-galli [15] = experiment: Pre-emergence herbicidal activity against Echinochloa crus-galli var. crus-galli at 100 g a.i./10a measured after 3 weeks by soil application test; type: functional
[16] = tested on: Amaranthus blitum subsp. oleraceus; experiment: Pre-emergence herbicidal activity against Amaranthus blitum subsp. Oleraceus at 100 g a.i./10a measured after 3 weeks by soil application test; type: functional
Digitaria ciliaris [17] = experiment: Pre-emergence herbicidal activity against Digitaria ciliaris at 100 g a.i./10a measured after 3 weeks by soil application test; type: functional
Chenopodium album [18] = experiment: Pre-emergence herbicidal activity against Chenopodium album at 100 g a.i./10a measured after 3 weeks by soil application test; type: functional
Echinochloa oryzicola [19] = experiment: Pre-emergence herbicidal activity against Echinochloa oryzicola at 800 g a.i./10a measured after 3 weeks by paddy application test; type: functional
Echinochloa crus-galli [20] = experiment: Pre-emergence herbicidal activity against Echinochloa crus-galli var. crus-galli at 800 g a.i./10a measured after 3 weeks by soil application test; type: functional
Chenopodium album [21] = experiment: Pre-emergence herbicidal activity against Chenopodium album at 800 g a.i./10a measured after 3 weeks by soil application test; type: functional
[22] = tested on: Schoenoplectiella juncoides; experiment: Pre-emergence herbicidal activity against Schoenoplectiella juncoides var. Hotarui Ohwi at 800 g a.i./10a measured after 3 weeks by paddy application test; type: functional
Rotala indica [23] = experiment: Pre-emergence herbicidal activity against Rotala indica at 800 g a.i./10a measured after 3 weeks by paddy application test; type: functional
Digitaria ciliaris [24] = experiment: Pre-emergence herbicidal activity against Digitaria ciliaris at 800 g a.i./10a measured after 3 weeks by soil application test; type: functional
Pontederia vaginalis [25] = experiment: Pre-emergence herbicidal activity against Monochoria vaginalis at 800 g a.i./10a measured after 3 weeks by paddy application test; type: functional

pI50 [1]: 6.74
SMILES: Cc1ccc(CNc2nc(C)nc(C(F)(F)F)n2)cc1

SMILES: Cc1nc(NCc2ccccc2)nc(C(F)(F)F)n1
Activity (Echinochloa oryzicola [2]): 3% | Activity (Pontederia vaginalis [3]): 6% | Activity (Chenopodium album [4]): 6% | Activity (Chenopodium album [5]): 6% | Activity (Digitaria ciliaris [6]): 3% | Activity (Echinochloa crus-galli [7]): 3% | Activity [8]: 4% | Activity (Rotala indica [9]): 4% | Activity [10]: 0% | Activity (Echinochloa crus-galli [11]): 2% | Activity (Digitaria ciliaris [12]): 4%

SMILES: Cc1nc(NCc2ccc([N+](=O)[O-])cc2)nc(C(F)F)n1
Activity (Echinochloa oryzicola [2]): 5% | Activity (Persicaria longiseta [13]): 6% | Activity (Pontederia vaginalis [3]): 5% | Activity (Chenopodium album [4]): 5% | Activity (Chenopodium album [5]): 6% | Activity (Digitaria ciliaris [6]): 4% | Activity (Echinochloa crus-galli [7]): 4% | Activity [8]: 5% | Activity (Rotala indica [9]): 6% | Activity (Persicaria longiseta [14]): 5% | Activity [10]: 5% | Activity (Echinochloa crus-galli [11]): 4% | Activity (Digitaria ciliaris [12]): 5%

SMILES: Cc1nc(CF)nc(NCc2ccc(Br)cc2)n1
Activity (Echinochloa oryzicola [2]): 5% | Activity (Persicaria longiseta [13]): 6% | Activity (Pontederia vaginalis [3]): 5% | Activity (Chenopodium album [4]): 5% | Activity (Chenopodium album [5]): 6% | Activity (Digitaria ciliaris [6]): 4% | Activity (Echinochloa crus-galli [7]): 4% | Activity [8]: 5% | Activity (Rotala indica [9]): 6% | Activity (Persicaria longiseta [14]): 5% | Activity [10]: 5% | Activity (Echinochloa crus-galli [11]): 4% | Activity (Digitaria ciliaris [12]): 5%

SMILES: Cc1nc(NCc2ccc(Br)cc2)nc(C(F)(F)F)n1
Activity (Echinochloa oryzicola [2]): 4% | Activity (Persicaria longiseta [13]): 6% | Activity (Pontederia vaginalis [3]): 5% | Activity (Chenopodium album [4]): 5% | Activity (Chenopodium album [5]): 6% | Activity (Digitaria ciliaris [6]): 5% | Activity (Echinochloa crus-galli [7]): 4% | Activity [8]: 5% | Activity (Rotala indica [9]): 5% | Activity [10]: 6% | Activity (Echinochloa crus-galli [11]): 5% | Activity (Digitaria ciliaris [12]): 6%

SMILES: Cc1ccc(CNc2nc(C)nc(C(F)F)n2)cc1
Activity (Echinochloa oryzicola [2]): 4% | Activity (Persicaria longiseta [13]): 6% | Activity (Pontederia vaginalis [3]): 5% | Activity (Chenopodium album [4]): 5% | Activity (Chenopodium album [5]): 6% | Activity (Digitaria ciliaris [6]): 4% | Activity (Echinochloa crus-galli [7]): 4% | Activity [8]: 4% | Activity (Rotala indica [9]): 5% | Activity (Persicaria longiseta [14]): 5% | Activity [10]: 5% | Activity (Echinochloa crus-galli [11]): 3% | Activity (Digitaria ciliaris [12]): 4%

pI50 [1]: 7.21
SMILES: Cc1nc(NCc2cccc(Cl)c2)nc(C(F)(F)F)n1

SMILES: Cc1nc(NCc2ccc(Cl)cc2)nc(C(F)F)n1
Activity (Echinochloa oryzicola [2]): 5% | Activity (Persicaria longiseta [13]): 6% | Activity (Pontederia vaginalis [3]): 6% | Activity (Chenopodium album [4]): 6% | Activity (Chenopodium album [5]): 6% | Activity (Digitaria ciliaris [6]): 5% | Activity (Echinochloa crus-galli [7]): 6% | Activity [8]: 5% | Activity (Rotala indica [9]): 6% | Activity (Persicaria longiseta [14]): 6% | Activity [10]: 6% | Activity (Echinochloa crus-galli [11]): 4% | Activity (Digitaria ciliaris [12]): 6%

SMILES: CCNc1nc(Cl)nc(NCC)n1 [SIMAZINE]
Activity (Echinochloa crus-galli [15]): 2% | Activity [16]: 5% | Activity (Digitaria ciliaris [17]): 3% | Activity (Chenopodium album [18]): 2%

SMILES: Cc1nc(CF)nc(NCc2ccccc2)n1
Activity (Echinochloa oryzicola [2]): 0% | Activity (Persicaria longiseta [13]): 4% | Activity (Pontederia vaginalis [3]): 0% | Activity (Chenopodium album [4]): 5% | Activity (Chenopodium album [5]): 6% | Activity (Digitaria ciliaris [6]): 1% | Activity (Echinochloa crus-galli [7]): 0% | Activity [8]: 4% | Activity (Rotala indica [9]): 0% | Activity (Persicaria longiseta [14]): 2% | Activity [10]: 0% | Activity (Echinochloa crus-galli [11]): 1% | Activity (Digitaria ciliaris [12]): 1%

SMILES: Cc1nc(NCc2ccccc2)nc(C(F)F)n1
Activity (Echinochloa oryzicola [2]): 4% | Activity (Persicaria longiseta [13]): 6% | Activity (Pontederia vaginalis [3]): 6% | Activity (Chenopodium album [4]): 6% | Activity (Chenopodium album [5]): 6% | Activity (Digitaria ciliaris [6]): 4% | Activity (Echinochloa crus-galli [7]): 3% | Activity [8]: 4% | Activity (Rotala indica [9]): 5% | Activity (Persicaria longiseta [14]): 6% | Activity [10]: 5% | Activity (Echinochloa crus-galli [11]): 5% | Activity (Digitaria ciliaris [12]): 4%

SMILES: Cc1nc(NCc2ccc(Br)cc2)nc(C(F)F)n1
Activity (Echinochloa oryzicola [2]): 6% | Activity (Persicaria longiseta [13]): 6% | Activity (Pontederia vaginalis [3]): 6% | Activity (Chenopodium album [4]): 6% | Activity (Chenopodium album [5]): 6% | Activity (Digitaria ciliaris [6]): 5% | Activity (Echinochloa crus-galli [7]): 6% | Activity [8]: 5% | Activity (Rotala indica [9]): 6% | Activity (Persicaria longiseta [14]): 6% | Activity [10]: 6% | Activity (Echinochloa crus-galli [11]): 4% | Activity (Digitaria ciliaris [12]): 6%

SMILES: Cc1nc(CF)nc(NCc2ccc(Cl)cc2)n1
Activity (Echinochloa oryzicola [2]): 5% | Activity (Persicaria longiseta [13]): 6% | Activity (Pontederia vaginalis [3]): 5% | Activity (Chenopodium album [4]): 5% | Activity (Chenopodium album [5]): 6% | Activity (Digitaria ciliaris [6]): 3% | Activity (Echinochloa crus-galli [7]): 4% | Activity [8]: 4% | Activity (Rotala indica [9]): 6% | Activity (Persicaria longiseta [14]): 4% | Activity [10]: 4% | Activity (Echinochloa crus-galli [11]): 3% | Activity (Digitaria ciliaris [12]): 4%

SMILES: Cc1nc(NCc2ccc(Cl)cc2)nc(C(F)(F)F)n1
Activity (Echinochloa oryzicola [2]): 6% | Activity (Persicaria longiseta [13]): 6% | Activity (Pontederia vaginalis [3]): 6% | Activity (Chenopodium album [4]): 5% | Activity (Chenopodium album [5]): 6% | Activity (Digitaria ciliaris [6]): 5% | Activity (Echinochloa crus-galli [7]): 4% | Activity [8]: 6% | Activity (Rotala indica [9]): 6% | Activity [10]: 6% | Activity (Echinochloa crus-galli [11]): 3% | Activity (Digitaria ciliaris [12]): 6%

SMILES: Cc1nc(NCc2cccc(Cl)c2)nc(C(F)F)n1
Activity (Echinochloa oryzicola [2]): 4% | Activity (Persicaria longiseta [13]): 6% | Activity (Pontederia vaginalis [3]): 5% | Activity (Chenopodium album [4]): 5% | Activity (Chenopodium album [5]): 6% | Activity (Digitaria ciliaris [6]): 4% | Activity (Echinochloa crus-galli [7]): 3% | Activity [8]: 4% | Activity (Rotala indica [9]): 5% | Activity (Persicaria longiseta [14]): 5% | Activity [10]: 5% | Activity (Echinochloa crus-galli [11]): 4% | Activity (Digitaria ciliaris [12]): 4%

SMILES: Cc1nc(C)nc(NCc2ccccc2)n1
Activity (Persicaria longiseta [13]): 0% | Activity (Echinochloa oryzicola [19]): 3% | Activity (Echinochloa crus-galli [20]): 0% | Activity (Chenopodium album [5]): 0% | Activity (Chenopodium album [21]): 0% | Activity [22]: 0% | Activity (Rotala indica [23]): 1% | Activity (Echinochloa crus-galli [7]): 0% | Activity (Digitaria ciliaris [24]): 0% | Activity (Digitaria ciliaris [12]): 0% | Activity (Pontederia vaginalis [25]): 6%

pI50 [1]: 7.16
SMILES: Cc1nc(NCc2ccc([N+](=O)[O-])cc2)nc(C(F)(F)F)n1
